In PMC7703437, “In Vitro Hepatic Metabolism of Curcumin Diethyl Disuccinate by Liver S9 from Different Animal Species” (Frontiers in Pharmacology, 2020):
Like-named read-outs stand apart in the source and are kept apart here.

Legend:
[1] = enzymatic hydrolysis, cited from earlier work
[2] = tested on: hepatic esterases of MLS9; assay: Identification of hepatic esterases by chemical inhibition, curcumin formation rate, MLS9; details: inhibitor 100 μM (EDTA 1 mM), preincubated 30 min at 37°C, MLS9 0.02 mg/ml, CDD 3 µM, 0.5 min
[3] = In vitro metabolism profiling of CDD in human liver S9 (1 mg/ml); assay type: in vitro ADME; details: pooled liver S9; human LS9 1 mg/ml; read-out: t 1/2 (MSCUR)
Description: (§1) The metabolism profiles of CDD were investigated against HLS9, MLS9, DLS9, and RLS9. A stock solution of CDD was prepared at 150 µM in 50% acetonitrile in water before use. The metabolism study was initiated by spiking 735 µl of preincubated LS9 with 15 µl of CDD stock solution, and the mixture was subsequently incubated at 37°C. The final concentrations of CDD and LS9 were 3 μM and 1 mg/ml, respectively. A 50-µl aliquot from the mixture was collected at 0.5, 1, 2, 3, 4, 5, 10, 15, 30, 45, 60, 90, and 120 min and immediately mixed with 100 µl of ice-cold acetonitrile containing 0.45 µM of internal standard DMC to terminate the metabolic reaction. […] The sample at the initial time point (0 min) was prepared as the other samples, except that heat-inactivated HLS9, MLS9, DLS9, and RLS9 (80°C for 20 min; 1 mg/ml protein) were used.
(§2) The UHPLC system consisted of an Agilent series 1290 quaternary pump with an online degasser, autosampler, column oven, and diode array detector. The mobile phase was composed of (A) 0.1% (v/v) formic acid in acetonitrile and (B) 0.1% (v/v) formic acid in water. Each solution was filtered through a nylon filter (pore size, 0.22 µm; MS® Membrane Filters; Membrane Solutions, United States) before use. The mobile phase flow rate was kept at 1.2 ml/min in a gradient mode using the following elution program: 0–3.0 min, initial A-B (40:60, v/v); 4.5–7.0 min, isocratic elution A-B [50:50, (v/v); 8.5–11.0 min, isocratic elution A-B (60:40, v/v); and 12.0–17.0 min, isocratic elution A-B (40:60, v/v)]. CDD, curcumin, and MSCUR in the supernatant were partitioned using a C8 column (4.6 mm × 50 mm, 2.7 µm; HALO, Advanced Materials Technology, United States) with reference to DMC. The detection wavelength was set at 400 nm (λ max(CDD) = 400 nm, λ max(curcumin) = 427 nm, λ max(MSCUR) = 418 nm, and λ max(DMC) = 421 nm). The column was maintained at 35°C throughout the run, and the supernatant injection volume was set at 20 µl.
(§3) The concentrations of CDD, curcumin, and MSCUR in the supernatant were determined from the standard plots, which were prepared by spiking individual working solutions of the compounds to heat-inactivated HLS9, MLS9, DLS9, and RLS9 ([Alcorn et al., 2007]; [Montoro-Garcia et al., 2009]; [Singh et al., 2010]). These working standards were extracted with 100 µl of ice-cold acetonitrile containing 0.45 µM of DMC and then 120 μl of the supernatant was diluted with 40 μl of water prior to the UHPLC analysis. The peak area ratios of CDD, curcumin, and MSCUR to the internal standard were computed against linear concentration ranges of 0.025–4.5 µM CDD, 0.025–4.5 µM curcumin, and 0.0125–0.75 µM MSCUR, respectively, with the coefficient of determination (r^2) values greater than 0.99.
(§4) The percent content of CDD and the metabolites formed upon its incubation with LS9, namely, curcumin and MSCUR, was plotted against incubation time.
(§5) The following equations were adopted to describe the changes in CDD and MSCUR content over time (t): A = A0e^−k1t (2) B= k1A0/k2−k1(e^−k1t−e^−k2t), (3) where A0 is the CDD concentration at time 0, k 1 is the degradation rate constant of CDD, and k 2 is the degradation rate constant of MSCUR. k 1 and k 2 were determined by using Eqs. 2 and 3, respectively, with nonlinear regression analysis using the SOLVER function of Microsoft Excel for Office 365 MSO (16.0.12527.20986) ([Brown, 2001]). The half-life (t 1/2) was calculated using Eq. 4: t1/2=0.693/k (4)
(§6) The in vitro intrinsic clearance (CLint,in vitro) of CDD and MSCUR in LS9 was calculated using Eq. 5: CLint, in vitro= k × [V]incubation(ml)/[P]incubation(mg protein), (5) where [V]incubation is the incubation volume in ml, and [P]incubation is the amount of LS9. […]

[4] = tested on: human LS9 (HLS9; pooled); assay: as above; assay type: in vitro ADME
Description: as §1, §2, §3, §4, §5, §6

[5] = In vitro metabolism profiling of CDD in monkey liver S9 (1 mg/ml); assay type: in vitro ADME, monkey (cynomolgus); details: liver S9; monkey LS9 1 mg/ml; read-out: t 1/2 (MSCUR)
Description: as §1, §2, §3, §4, §5, §6

[6] = tested on: monkey LS9 (MLS9; cynomolgus); assay: as above; assay type: in vitro ADME
Description: as §1, §2, §3, §4, §5, §6

[7] = In vitro metabolism profiling of CDD in dog liver S9 (1 mg/ml); assay type: in vitro ADME, dog (beagle); details: beagle, liver S9; dog LS9 1 mg/ml; read-out: t 1/2 (MSCUR)
Description: as §1, §2, §3, §4, §5, §6

[8] = tested on: dog LS9 (DLS9; beagle); assay: as above; assay type: in vitro ADME
Description: as §1, §2, §3, §4, §5, §6

[9] = In vitro metabolism profiling of CDD in rat liver S9 (1 mg/ml); assay type: in vitro ADME, rat (Sprague–Dawley); details: Sprague-Dawley, liver S9; rat LS9 1 mg/ml; read-out: t 1/2 (MSCUR)
Description: as §1, §2, §3, §4, §5, §6

[10] = tested on: rat LS9 (RLS9; Sprague–Dawley); assay: as above; assay type: in vitro ADME
Description: as §1, §2, §3, §4, §5, §6

[11] = tested on: LS9 from all tested species (HLS9, MLS9, DLS9, RLS9); assay: In vitro metabolism profiling of CDD, statements for LS9 from all tested species; assay type: in vitro ADME, human, monkey, dog, rat
Description: as §1, §2
The concentrations of CDD, curcumin, and MSCUR in the supernatant were determined from the standard plots, which were prepared by spiking individual working solutions of the compounds to heat-inactivated HLS9, MLS9, DLS9, and RLS9 ([Alcorn et al., 2007]; [Montoro-Garcia et al., 2009]; [Singh et al., 2010]). […]
as §5, with “2 and 3, respectively, with nonlinear regression analysis using the SOLVER function of Microsoft Excel for Office 365 MSO (16.0.12527.20986) ([Brown, 2001]).” left out

[12] = tested on: hepatic esterases of HLS9; assay: Identification of hepatic esterases by chemical inhibition, curcumin formation rate, HLS9; details: inhibitor 100 μM (EDTA 1 mM), preincubated 30 min at 37°C, HLS9 0.02 mg/ml, CDD 3 µM, 1 min

CC(C)OC(=O)[C@H](C)N[P@](=O)(OC[C@H]1O[C@@](C#N)(c2ccc3c(N)ncnn23)[C@](C)(O)[C@@H]1OC(=O)C(C)C)Oc1ccccc1 [GS-6620]
t 1/2 ([1]; ref Murakami et al., 2014): approximately 4.0 min

C=CC[N+](C)(C)c1ccc(CCC(=O)CCc2ccc([N+](C)(C)CC=C)cc2)cc1.[Br-].[Br-] [1,5-bis(4-allyldimethylammoniumphenyl) pentan-3-one dibromide]
inhibition of CDD hydrolysis in MLS9 (relative curcumin formation rate) [2]: no enzyme inhibitory effects

CCOC(=O)CCC(=O)Oc1ccc(/C=C/C(=O)/C=C(O)/C=C/c2ccc(O)c(OC)c2)cc1OC [MSCUR, monoethylsuccinyl curcumin]
half-life [3]: 3.456 ± 0.00252 s
CLint, in vitro(MSCUR) ([4]; human LS9): 12.07 ± 0.86 ml min^−1 mg protein^−1
k 2 (MSCUR) ([4]; human LS9 1 mg/ml, CDD 3 µM, 37°C): 12.07 ± 0.86 min⁻¹
CLint, in vivo(MSCUR) ([4]; human, scaled from CLint,in vitro): 2,251.20 ± 161.06 L h^−1 kg^−1
half-life at 3 µM [5]: 2.034 ± 0.00324 s
CLint, in vitro(MSCUR) of MLS9 higher than that of HLS9 ([6]; MLS9 vs HLS9): ~1.7 fold
CLint, in vitro(MSCUR) ([6]; monkey LS9): 20.79 ± 3.13 ml min^−1 mg protein^−1
k 2 (MSCUR) ([6]; monkey LS9 1 mg/ml, CDD 3 µM, 37°C): 20.79 ± 3.13 min⁻¹
CLint, in vivo(MSCUR) ([6]; monkey, scaled from CLint,in vitro): 4,527.30 ± 682.15 L h^−1 kg^−1
half-life at 3 µM [7]: 1.704 ± 0.0018 s
CLint, in vitro(MSCUR) of DLS9 higher than that of HLS9 ([8]; DLS9 vs HLS9): approximately two
CLint, in vitro(MSCUR) ([8]; dog LS9): 24.61 ± 2.55 ml min^−1 mg protein^−1
k 2 (MSCUR) ([8]; dog LS9 1 mg/ml, CDD 3 µM, 37°C): 24.61 ± 2.55 min⁻¹
CLint, in vivo(MSCUR) ([8]; dog, scaled from CLint,in vitro): 5,716.98 ± 592.58 L h^−1 kg^−1
half-life at 3 µM [9]: 4.314 ± 0.00264 s
CLint, in vitro(MSCUR) of RLS9 lower than that of HLS9 ([10]; RLS9 vs HLS9): 0.8 fold
CLint, in vitro(MSCUR) ([10]; rat LS9): 9.66 ± 0.60 ml min^−1 mg protein^−1
k 2 (MSCUR) ([10]; rat LS9 1 mg/ml, CDD 3 µM, 37°C): 9.66 ± 0.60 min⁻¹
CLint, in vivo(MSCUR) ([10]; rat, scaled from CLint,in vitro): 2,805.37 ± 174.76 L h^−1 kg^−1
maximum amount of M2 or MSCUR ([11]; at 0.5 min of incubation of CDD 3 µM in LS9): approximately 10%

COC(=O)[C@H](c1ccccc1Cl)N1CCc2sc(OC(C)=O)cc2C1 [vicagrel]
t 1/2 ([1]; ref Qiu et al., 2016): approximately 1.6 min

O=C(O)CN(CCN(CC(=O)O)CC(=O)O)CC(=O)O [EDTA, ethylenediaminetetraacetic acid]
inhibition of CDD hydrolysis in MLS9 (relative curcumin formation rate) [2]: no enzyme inhibitory effects

CN(C)C(=O)C(CCN1CCC(O)(c2ccc(Cl)cc2)CC1)(c1ccccc1)c1ccccc1 [loperamide]
inhibition of CDD hydrolysis in HLS9 (relative curcumin formation rate) [12]: inhibited

C[C@@H]1CC[C@@]2(OC1)O[C@H]1[C@@H](O)[C@H]3[C@@H]4CC[C@H]5C[C@@H](O[C@@H]6O[C@H](CO)[C@H](O[C@@H]7O[C@H](CO)[C@@H](O)[C@H](O[C@@H]8OC[C@@H](O)[C@H](O)[C@H]8O)[C@H]7O[C@@H]7O[C@H](CO)[C@H](O)[C@H](O[C@@H]8O[C@H](CO)[C@@H](O)[C@H](O)[C@H]8O)[C@H]7O)[C@H](O)[C@H]6O)[C@H](O)C[C@]5(C)[C@H]4CC[C@]3(C)[C@H]1[C@@H]2C [digitonin]
inhibition of CDD hydrolysis in HLS9 (relative curcumin formation rate) [12]: inhibited

O=S(=O)(F)Cc1ccccc1 [PMSF, phenylmethylsulfonyl fluoride]
inhibition of CDD hydrolysis in HLS9 (relative curcumin formation rate) [12]: to a lesser extent

O=[N+]([O-])c1ccc(OP(=O)(O)Oc2ccc([N+](=O)[O-])cc2)cc1 [BNPP, Bis(4-nitrophenyl) phosphate]
inhibition of CDD hydrolysis in HLS9 (relative curcumin formation rate) [12]: inhibited
inhibition of CDD hydrolysis in MLS9 (relative curcumin formation rate) [2]: inhibited

CC(C)NP(=O)(NC(C)C)OP(=O)(NC(C)C)NC(C)C [iso-OMPA, tetra(monoisopropyl) pyrophosphortetramide]
inhibition of CDD hydrolysis in HLS9 (relative curcumin formation rate) [12]: to a lesser extent

curcumin
curcumin (M1) produced ([11]; following 15 min of incubation of CDD 3 µM in each LS9): ~70%

O=C([O-])c1cc[c]([Hg][OH])cc1.[Na+] [PCMB, 4-(hydroxymercurio) benzoic acid sodium salt]
inhibition of CDD hydrolysis in HLS9 (relative curcumin formation rate) [12]: inhibited
inhibition of CDD hydrolysis in MLS9 (relative curcumin formation rate) [2]: no enzyme inhibitory effects

O=C(O)c1cc(SSc2ccc([N+](=O)[O-])c(C(=O)O)c2)ccc1[N+](=O)[O-] [DTNB, 5,5′-dithiobis (2-nitrobenzoic acid)]
inhibition of CDD hydrolysis in HLS9 (relative curcumin formation rate) [12]: to a lesser extent
inhibition of CDD hydrolysis in MLS9 (relative curcumin formation rate) [2]: no enzyme inhibitory effects
